Experimental data taken from the supplement of paper PMC10307832.

Tests used:
Experiment in all cases: relative viability (nuclei count vs DMSO), 5 days (fraction); higher = more cells survive
[1] = compound: CC(C)CCN1c2nc(Nc3cc(F)c(O)c(F)c3)ncc2N(C)C(=O)C1C [BI-D1870] + Cc1nc(NC(=O)N2CCC[C@H]2C(N)=O)sc1-c1ccnc(C(C)(C)C(F)(F)F)c1 [Alpelisib] (partner 2 µM)
How it was run: (§1)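 Lung cancer cell lines, seeded in 1536-well plates, were treated the following day by pin tool with a single drug or with five library-drug doses (not always all listed) in √10 steps on top of a fixed anchor-drug dose. Cells were fixed and nuclei stained in one step after 5 days, and nuclei were counted. Relative viability is the nuclei count for treated wells divided by that for vehicle wells, reported as medians of duplicate plates.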

[2] = compound: CC(C)CCN1c2nc(Nc3cc(F)c(O)c(F)c3)ncc2N(C)C(=O)C1C [BI-D1870] + Cc1nc(Nc2ncc(C(=O)Nc3c(C)cccc3Cl)s2)cc(N2CCN(CCO)CC2)n1 [Dasatinib] (partner 0.075 µM)
How it was run: as §1

[3] = compound: O=c1ncccn1[C@@H]1O[C@H](CO)[C@@H](O)[C@H]1O [Zebularine] + COc1cc2c(Oc3ccc(NC(=O)C4(C(=O)Nc5ccc(F)cc5)CC4)cc3F)ccnc2cc1OCCCN1CCOCC1 [Foretinib] (partner 0.25 µM)
How it was run: as §1

[4] = compound: O=c1ncccn1[C@@H]1O[C@H](CO)[C@@H](O)[C@H]1O [Zebularine] + N=C(N)NC(=N)NCCc1ccccc1 [Phenformin] (partner 250 µM)
How it was run: as §1

Cell Line	relative viability ([1]; first compound 0.04 µM)	relative viability ([1]; first compound 0.1265 µM)	relative viability ([1]; first compound 0.4 µM)	relative viability ([1]; first compound 1.265 µM)	relative viability ([1]; first compound 4 µM)	relative viability ([2]; first compound 0.04 µM)	relative viability ([2]; first compound 0.1265 µM)	relative viability ([2]; first compound 0.4 µM)	relative viability ([2]; first compound 1.265 µM)	relative viability ([2]; first compound 4 µM)	relative viability ([3]; first compound 1 µM)	relative viability ([3]; first compound 3.162 µM)	relative viability ([3]; first compound 10 µM)	relative viability ([3]; first compound 31.62 µM)	relative viability ([3]; first compound 100 µM)	relative viability ([4]; first compound 1 µM)	relative viability ([4]; first compound 3.162 µM)	relative viability ([4]; first compound 10 µM)	relative viability ([4]; first compound 31.62 µM)	relative viability ([4]; first compound 100 µM)
NCI-H2347	1.07	0.984	0.816	1.14	0.848	0.345	0.319	0.332	0.306	0.297	1.02	0.856	0.881	0.614	0.813	0.583	0.38	0.297	0.233	0.293
NCI-H2405	0.976	0.766	0.769	0.789	0.705	0.253	0.19	0.218	0.215	0.219	1.04	1.05	1.07	0.986	0.664	0.425	0.378	0.352	0.435	0.335
NCI-H3122	0.721	0.643	0.724	0.852	0.749	0.845	0.744	0.834	0.955	0.92	1.02	0.939		1.02	0.969	0.434	0.389	0.332	0.385	0.352
PC-3 [JPC-3]	1.07	0.971	1.03	1.13	1	1	0.892	1.01	1.12	0.947	1.09	1.07	0.67	0.829	0.444	0.461	0.486	0.437	0.46	0.396
PC-14	1.15	0.882	0.913	0.837	0.862	0.27	0.241	0.272	0.239	0.259	1.03	0.878	0.48	0.191	0.158	0.805	0.28	0.167	0.124	0.0723
RERF-LC-KJ	0.835	0.76	0.761	0.688	0.689	0.968	0.72	0.762	0.814	0.495	1	0.879		0.895	0.871	0.403	0.431	0.35	0.41	0.406
SK-LU-1	1.04	0.879	0.807	0.653	0.237	0.18	0.165	0.132	0.229	0.153	0.884	0.8	0.47	0.651	0.444	0.633	0.552	0.313	0.493	0.33
SK-MES-1	0.956	0.859	0.78	0.973	0.644	0.44	0.369	0.323	0.362	0.3	1.12	0.828	0.794	0.742	0.337	0.755	0.693	0.45	0.362	0.226
SW 1573	0.934	0.64	0.723	0.794	0.661	0.625	0.456	0.594	0.472	0.213	0.871	0.767	0.802	0.999	0.885	0.379	0.404		0.406	0.227
